Measured values: ChEMBL document CHEMBL1201862, “PubChem BioAssay data set” (2004)
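Growth conditions: 96-well plates. Treatment: test compound, 48 hours, 5 concentrations. Analysis: linear interpolation between bracketing concentrations; unreached endpoints set to highest concentration. Abbreviation: GI50, concentration required for 50% inhibition of growth.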 Active and inactive are the calls of the source. Cut-off read from the data, not from the text of the source: active = GI50 up to about 1.1 µM and inactive = higher.

What was measured:
Assay in all cases: DTP human tumour cell line panel, 48 h
MDA-MB-435 = system: MDA-MB-435
HOP-18 = system: HOP-18
HOP-62 = system: HOP-62
DMS-114 = system: DMS-114
SF-295 = system: SF-295
SF-539 = system: SF-539
IGROV-1 = system: IGROV-1
HOP-92 = system: HOP-92
RPMI-8226 = system: RPMI-8226
HCT-116 = system: HCT-116
PC-3 = system: PC-3
LOX IMVI = system: LOX IMVI
DU-145 = system: DU-145
A549 = system: A549
EKVX = system: EKVX
SNB-75 = system: SNB-75
MDA-N = system: MDA-N
KM12 = system: KM12
KM-20L2 = system: KM-20L2
DLD-1 = system: DLD-1

Row | Structure (SMILES) | GI50 (MDA-MB-435) | GI50 (HOP-18) | GI50 (HOP-62) | GI50 (DMS-114) | GI50 (SF-295) | GI50 (SF-539) | GI50 (IGROV-1) | GI50 (HOP-92) | GI50 (RPMI-8226) | GI50 (HCT-116) | GI50 (PC-3) | GI50 (LOX IMVI) | GI50 (DU-145) | GI50 (A549) | GI50 (EKVX) | GI50 (SNB-75) | GI50 (MDA-N) | GI50 (KM12) | GI50 (KM-20L2) | GI50 (DLD-1)
1 | Cc1c2cc[n+](C)cc2c(C)c2c1[nH]c1ccc(O)cc12 [ELLIPTINIUM ACETATE] | 48.9 µM (inactive) | 14.3 µM (inactive) | 4.06 µM (inactive) | 5.97 µM (inactive) | 5.79 µM (inactive) | 12 µM (inactive) | 16.6 µM (inactive) | 19.3 µM (inactive) | 36.7 µM (inactive) | 20.2 µM (inactive) | 28.4 µM (inactive) | 31 µM (inactive) | 5.46 µM (inactive) | 0.447 µM (active) | 38.2 µM (inactive) | 2.36 µM (inactive) | 47.8 µM (inactive) | 2.53 µM (inactive) | > 100 µM (inactive) | 57.7 µM (inactive)
2 | COC(=O)C1OC(Oc2cc(O)c3c(=O)cc(-c4ccc(O)cc4)oc3c2)C(O)C(O)C1O (stereo unspecified) |  | > 100 µM (inactive) | > 100 µM (inactive) | > 100 µM (inactive) | > 100 µM (inactive) | > 100 µM (inactive) | > 100 µM (inactive) | > 100 µM (inactive) | > 100 µM (inactive) | > 100 µM (inactive) |  | > 100 µM (inactive) |  | > 100 µM (inactive) | > 100 µM (inactive) | > 100 µM (inactive) |  | > 100 µM (inactive) | > 100 µM (inactive) | > 100 µM (inactive)
